This note sets out measurements from patent US20030045557A1, “Thiadiazoles and oxadiazoles and their use as phosphodiesterase-7 inhibitors” (priority 2000, published 2003).

The term IC50 denotes the concentration at which inhibition is half-maximal.

The test addresses T1, PDE7A1 (Homo sapiens, UniProt Q13946).
T1 construct: made in house; host or cells: Sf21 insect cells (baculovirus expression system)
Put plainly: In vitro inhibition of phosphodiesterase 7 (enzymatic activity, cAMP substrate 50 nM). In kind it is biochemical. Particulars: PDE7A1 expressed in Sf 21 insect cells; cAMP 50 nM; reaction 10 minutes; read-out: IC50 (PDE7). The method, then:
The capacity of the compounds of the invention to inhibit cyclic nucleotide phosphodiesterases was evaluated by measuring their IC50 (concentration necessary to inhibit the enzymatic activity by 50%).
PDE3A3, PDE4D3, and PDE7A1 were cloned and expressed in insect cells Sf 21 using the baculovirus expression system. The source of PDE103 and of PDE503 were human cell lines (respectively TPH1 human monocytes and MCF7 human breast adenocarcinoma). The various types of phosphodiesterases were obtained partially purified on an anion exchange column (Mono Q) according to a method adapted from Lavan B. E., Lakey T., Houslay M.D., Biochemical Pharmacology, 1989;38(22):4123-4136.
Measurement of the enzymatic activity for the various types of PDE was then made according to a method adapted from Thompson W. J. et al., Advances in Cyclic Nucleotide Research, ed. G. Brooker et al. New York: Raven Press, 1979;10:69-92.
The substrate used was cGMP for PDE1 and PDE5 and cAMP for PDE3, PDE4, and PDE7. The substrate concentration was 0.2 μM for PDE1, PDE3, and PDE5, 0.25 μM for PDE4, and 50 nM for PDE7.
The enzymatic reaction was stopped after 1 hour for PDE1, PDE3, and PDE5 and 10 minutes for PDE4 and PDE7.

The structures appear in SMILES notation.

T1 sequence (Q13946 whole entry, species assumed): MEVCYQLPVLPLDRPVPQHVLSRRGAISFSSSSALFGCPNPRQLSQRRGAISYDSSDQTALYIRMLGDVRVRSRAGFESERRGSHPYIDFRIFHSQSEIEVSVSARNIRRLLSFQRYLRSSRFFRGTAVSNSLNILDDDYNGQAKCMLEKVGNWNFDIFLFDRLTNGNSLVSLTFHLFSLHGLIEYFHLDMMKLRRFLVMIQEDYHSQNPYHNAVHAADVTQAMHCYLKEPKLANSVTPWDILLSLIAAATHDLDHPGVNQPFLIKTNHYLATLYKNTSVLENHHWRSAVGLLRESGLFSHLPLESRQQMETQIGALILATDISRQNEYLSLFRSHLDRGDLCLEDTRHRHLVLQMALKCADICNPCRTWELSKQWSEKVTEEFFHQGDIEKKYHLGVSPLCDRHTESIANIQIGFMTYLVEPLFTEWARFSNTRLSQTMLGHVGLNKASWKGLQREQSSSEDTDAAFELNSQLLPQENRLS

Regarding `Cn1nc(-c2ccc(C(=O)NCc3ccncc3)cc2)s/c1=N\C1CCCCC1` [I37,10, 4-(5-Cyclohexylimino-4-methyl-4,5-dihydro[1,3,4]thiadiazol-2-yl)-N-pyridin-4-ylmethyl-benzamide], the IC50 turned out to be 44 nM.

`Cn1nc(-c2ccc(Cl)cc2)s/c1=N\[C@@H]1CCCC[C@@H]1O` (relative stereo) [I3,25, (1R*,2S*)-2-[5-(4-Chloro-phenyl)-3-methyl-3H-[1,3,4]thiadiazol-2-ylideneamino]-cyclohexanol]: the IC50 was found to be 1200 nM.

For the compound `CN1CCC(N(C)C(=O)c2ccc(-c3nn(C)/c(=N/C4CCCCC4)s3)cc2)CC1` [I37,11, 4-(5-Cyclohexylimino-4-methyl-4,5-dihydro-[1,3,4]thiadiazol-2-yl)-N-methyl-N-(1-methyl-piperidin-4-yl)-benzamide], the half-maximal inhibitory concentration (IC50) came out at 72 nM.

Turning to `Cn1nc(-c2ccc3c(c2)OCO3)s/c1=N\C1CCCCC1` [Example I40, (5-Benzo[1,3]dioxol-5-yl-3-methyl-3H-[1,3,4]thiadiazol-2-ylidene)-cyclohexyl-amine], the IC50 came out at 450 nM.

`Cn1nc(-c2cccc(C(=O)O)c2)s/c1=N\C1CCCCC1` [I21,1, 3-(5-Cyclohexylimino-4-methyl-4,5-dihydro-[1,3,4]thiadiazol-2-yl)-benzoic acid]: the IC50 is 870 nM.

Take `COc1ccc(NC(=O)c2ccc(-c3nn(C)/c(=N/C4CCCCC4)s3)cc2)c(OC)n1` [I37,6, 4-(5-Cyclohexylimino-4-methyl-4,5-dihydro[1,3,4]thiadiazol-2-yl)-N-(2,6-dimethoxy-pyridin-3-yl)-benzamide]: the IC50 stood at 97 nM.

For the compound `Cn1nc(-c2ccc(Cl)cc2)s/c1=N\C1CCCCC1` [I18,5, [5-(4-Chloro-phenyl)-3-methyl-3H-[1,3,4]thiadiazol-2-ylidene]-cyclohexyl-amine], the half-inhibitory concentration (IC50) stood at 1200 nM.
